{"source": "patent US20070135488A1", "about": "“Amlodipine nicotinate and process for the preparation thereof” (priority 2002, published 2007)", "key": {"[1]": {"experiment": "Solubility measurement (water solubility and pH at saturation)", "format": "physicochemical", "settings": "distilled water, room temperature; for solubility: ultrasonic waves, maximal solubilized amount", "experimental": "Water solubilities were measured for amlodipine besylate prepared in accordance with U.S. Pat. No. 4,879,303 and amlodipine nicotinate obtained in Example 1. By using 50 ml of distilled water and ultrasonic waves, maximal solubilized amounts were measured at a room temperature and pHs at saturation were measured using Fischer Scientific Accument (PH meter 15)."}, "[2]": {"experiment": "Chemical stability (stability test under stress condition)", "format": "physicochemical", "settings": "tablets in sealed vials, 50° C., 60% relative humidity, three weeks, TLC", "experimental": "In order to assess the chemical stability, amlodipine besylate and amlodipine nicotinate were blended in a powder vehicle and formed into tablets. The vehicle for tablets comprised microcrystalline cellulose and anhydrous dibasic calcium phosphate in 50:50. The tablets were then stored in sealed vials at 50° C. and at 60% relative humidity for three weeks.\nFIGS. 4A and 4B show H-NMR charts of amlodipine besylate before and after the stability test, respectively, and FIGS. 5A and 5B show H-NMR charts of amlodipine nicotinate before and after the stability test, respectively. The peaks on NMR of amlodipine besylate are as follows: […]"}, "Photostability": {"experiment": "Photostability", "format": "physicochemical", "settings": "25-30° C., 2 weeks, incandescent lamp (220V, 100 W) 30 cm above", "experimental": "1.0 g of amlodipine besylate prepared in accordance with U.S. Pat. No. 4,879,303 and 1.0 g of amlodipine nicotinate dihydrate obtained in Example 1, which were placed in glass schales (100×20 mm), were exposed at 25-30° C. for 2 weeks under an incandescent lamp (220V, 100 W) that was placed at 30 cm above the samples. […] FIGS. 6A and 6B show H-NMR charts of amlodipine besylate before and after the photostability test, respectively. The peaks on NMR of amlodipine besylate are as follows: […]"}, "Hygroscopicity test": {"experiment": "Hygroscopicity test", "format": "physicochemical", "settings": "60% relative humidity, 50° C., 14 days", "experimental": "1.0 g of amlodipine besylate prepared in accordance with U.S. Pat. No. 4,879,303 and 1.0 g of amlodipine nicotinate dihydrate obtained in Example 1 were exposed to 60% relative humidity at 50° C. for 14 days."}, "[3]": {"experiment": "Processability test (stickiness to tablet punch)", "format": "physicochemical", "settings": "amount adhering to tablet punch; for Stickiness: Amlodipine(μg)/cm^2 (tablet): average from slope over runs of 50-300 tablets", "experimental": "Using a conventional tablet making machinery, fifty tablets containing calcium sulphate dihydrate, microcrystalline cellulose and amlodipine nicotinate dihydrate (47.5:47.5:5) were produced. The material adhering to the tablet punch was then extracted using methanol and the amount was measured spectrometrically. This procedure was then repeated for runs of 100, 150, […], 250 and 300 tablets. After each run the amount of material adhering to the tablet punch was measured in the same process as above. The values were plotted and an average value was calculated from the slope of the line produced. The same procedure was then repeated for amlodipine besylate. The amount of amlodipine measured as adhering to the tablet punch is shown in Table 2 for amlodipine nicotinate dihydrate with relative to amlodipine besylate."}, "[4]": {"tested_on": "spontaneously hypertensive rats (SHRs)", "experiment": "In vivo anti-hypertensive activity, systolic blood pressure by tail-cuff method", "design": "species or system rat", "settings": "SHR; for ED20 (amount necessary for 20% decrease in the blood pressure) / Intensity (reverse ratio of ED20 values relative to amlodipine besylate) / Maximal anti-hypertensive effect (change of systolic blood pressure) / Intensity (maximal effect of amlodipine nicotinate to maximal effect of amlodipine besylate): oral; for Maximal anti-hypertensive effect (change of systolic blood pressure): mean % ± S.E.M.", "experimental": "Cardiovascular effects, i.e., in vivo anti-hypertensive activities, were measured for amlodipine besylate prepared in accordance with U.S. Pat. No. 4,879,303 and amlodipine nicotinate prepared in Example 1, using spontaneously hypertensive rats (SHRs), by Korea Research Institute of Chemical Technology (Screening Center, #100, Jang-dong, Yuseong-gu, Daejeon).\nMale SHRs (Charles Rever Co., Japan) aged 13-14 weeks were used. Before evaluation, the SHRs were accustomed in a clean breeding chamber under conditions of a temperature of 22.5±1° C., a relative humidity of 55±5% and a lighting time of 12 hour intervals.\nThe SHRs having a systolic blood pressure over 170 mmHg were divided into 7 groups, i.e., Test Groups 1 to 3 (for amlodipine besylate), Test Groups 4 to 6 (for amlodipine nicotinate) and a Control Group. Each Test Group and Control Group consisted of 6-8 SHRs (n=6-8).\nThe test compounds were dissolved in distilled water to prepare test solutions immediately prior to administration. The test solutions of amlodipine besylate and amlodipine nicotinate were prepared by dissolving 1, 3, and 10 mg/kg in distilled water (0.5 ml/100 g rat), respectively, and then administered orally to each Test Group. The vehicle (distilled water) was administered to Control Group.\nThe systolic blood pressure was measured with Multichannel 8000 (TSE Co., Germany), using a tail-cuff method. That is, the systolic blood pressures of a tail artery of each rat were measured before the administration of the test solutions and after 2, 4, 6, 8, 10, and 24 hours from the administration thereof. In order to facilitate the measurement of blood pressures, the test animals of each Group underwent warming at 37° C. for about 10 minutes before the measurements.\nThe results of the foregoing test were expressed by a mean percentage and standard error (mean %±S.E.M.). Statistical analysis of the test results were conducted by an unpaired t-test and ANOVA (one-way analysis of variance) with Sigma Stat program (Jandel Co., USA). The secondary evaluations were conducted by a Dunnett's multiple comparison test."}, "[5]": {"settings": "1 mg/kg, listed as Nicotinate salt, dihydrate"}, "[6]": {"settings": "listed as amlodipine nicotinate, dihydrate"}}, "note": "Where two headings read alike, the source gives them in different places."}
{"compound": "CCOC(=O)C1=C(COCCN)NC(C)=C(C(=O)OC)C1c1ccccc1Cl", "note": "(centres unmarked) [Amlodipine besylate, amlodipine besylate, reference compound]", "values": [{"measurement": "pH at saturation", "setting": "[1]", "result": 6.6}, {"measurement": "solubility", "setting": "[1]; water, thermodynamic from solid, read-out: Solubility", "result": 4600, "unit": "µg/mL"}, {"measurement": "breakdown products after stability test", "setting": "[2]", "result": "breakdown products"}, {"measurement": "color change after photostability test", "setting": "Photostability", "result": "discolored to yellow"}, {"measurement": "hygroscopicity (state after exposure)", "setting": "Hygroscopicity test", "result": "remained anhydrous"}, {"measurement": "Stickiness relative to besylate", "setting": "[3]", "result": 100.0, "unit": "%"}, {"measurement": "Stickiness: Amlodipine(μg)/cm^2 (tablet)", "setting": "[3]", "result": "1.20 μg/cm^2 (tablet)"}, {"measurement": "ED20 (amount necessary for 20% decrease in the blood pressure)", "setting": "[4]", "result": "2.48 ± 0.46", "unit": "mg/kg"}, {"measurement": "Intensity (reverse ratio of ED20 values relative to amlodipine besylate)", "setting": "[4]", "result": 1.00}, {"measurement": "Maximal anti-hypertensive effect (change of systolic blood pressure)", "setting": "[4]; 1 mg/kg, listed as Besylate salt", "result": "−7.0 ± 1.66", "unit": "%"}, {"measurement": "Maximal anti-hypertensive effect (change of systolic blood pressure)", "setting": "[4]; 3 mg/kg, listed as Besylate salt", "result": "−25.0 ± 1.98", "unit": "%"}, {"measurement": "Maximal anti-hypertensive effect (change of systolic blood pressure)", "setting": "[4]; 10 mg/kg, listed as Besylate salt", "result": "−38.7 ± 2.18", "unit": "%"}, {"measurement": "effect on blood pressure", "setting": "[4]; oral, 1, 3 and 10 mg/kg", "result": "dose-dependently reduced blood pressures"}, {"measurement": "ED20 (amount necessary for 20% decrease in the blood pressure)", "setting": "[4]; listed as amlodipine besylate", "result": "2.48 ± 0.46", "unit": "mg/kg"}]}
{"compound": "CCOC(=O)C1=C(COCCN)NC(C)=C(C(=O)OC)C1c1ccccc1Cl", "note": "(centres unmarked) [Amlodipine nicotinate, amlodipine nicotinate dihydrate]", "values": [{"measurement": "pH at saturation", "setting": "[1]; dihydrate", "result": 7.2}, {"measurement": "solubility", "setting": "[1]; dihydrate", "result": 6800, "unit": "µg/mL"}, {"measurement": "breakdown products after stability test", "setting": "[2]; dihydrate", "result": "no breakdown product"}, {"measurement": "color change after photostability test", "setting": "Photostability; dihydrate", "result": "no color change"}, {"measurement": "hygroscopicity (state after exposure)", "setting": "Hygroscopicity test; dihydrate", "result": "remained intact"}, {"measurement": "Stickiness: Amlodipine(μg)/cm^2 (tablet)", "setting": "[3]; dihydrate", "result": "0.44 μg/cm^2 (tablet)"}, {"measurement": "Stickiness relative to besylate", "setting": "[3]; dihydrate", "result": 36.7, "unit": "%"}, {"measurement": "Maximal anti-hypertensive effect (change of systolic blood pressure)", "setting": "[4]; [5]", "result": "−10.20 ± 2.71", "unit": "%"}, {"measurement": "Intensity (maximal effect of amlodipine nicotinate to maximal effect of amlodipine besylate)", "setting": "[4]; 1 mg/kg, dihydrate", "result": "about 1.46"}, {"measurement": "Intensity (maximal effect of amlodipine nicotinate to maximal effect of amlodipine besylate)", "setting": "[4]; [5]", "result": 1.46}, {"measurement": "Intensity (maximal effect of amlodipine nicotinate to maximal effect of amlodipine besylate)", "setting": "[4]; 3 mg/kg", "result": 1.07}, {"measurement": "Maximal anti-hypertensive effect (change of systolic blood pressure)", "setting": "[4]; 3 mg/kg, listed as Nicotinate salt, dihydrate", "result": "−26.8 ± 3.22", "unit": "%"}, {"measurement": "Intensity (maximal effect of amlodipine nicotinate to maximal effect of amlodipine besylate)", "setting": "[4]; 10 mg/kg", "result": 1.06}, {"measurement": "Maximal anti-hypertensive effect (change of systolic blood pressure)", "setting": "[4]; 10 mg/kg, listed as Nicotinate salt, dihydrate", "result": "−40.9 ± 2.08", "unit": "%"}, {"measurement": "ED20 (amount necessary for 20% decrease in the blood pressure)", "setting": "[4]; dihydrate", "result": "2.19 ± 0.57", "unit": "mg/kg"}, {"measurement": "Intensity (reverse ratio of ED20 values relative to amlodipine besylate)", "setting": "[4]; dihydrate", "result": 1.13}, {"measurement": "ED20 (amount necessary for 20% decrease in the blood pressure)", "setting": "[4]; [6]", "result": "2.19 ± 0.57", "unit": "mg/kg"}, {"measurement": "Intensity (reverse ratio of ED20 values relative to amlodipine besylate)", "setting": "[4]; [6]", "result": "about 1.13"}]}
